Source: US20240131352A1, “NON-INVASIVE CANCER TREATMENT” (SCIENTIA BIOTECH S.L, priority 2021, published 2024)
Read-outs that look alike come from different tables or passages of the source. Marks after values point to notes of the source that are not given here.

Columns and labels:
[1] = tested on: U87MG cells; conditions: 240 min + HT 42° C. 10 min; for effect on cell viability for U87MG cells: 20 μM compound minute 210 to 240 + TTF 300 kHz, about 8 μT; for effect on viable U87MG cells of TTF+HT+PT: 20 μM pterostilbene minute 120 to 240 + TTF 300 kHz, 8 μT
Procedure: The hyperthermia applied was 42° C. for 10 minutes (from minute 120 to minute 130). 20 μM of pterostilbene was applied for 120 minutes (from minute 120 to minute 240). […] The magnetic field was applied using a solenoid with approximately 100 μT magnetic flux density at the central axis of the solenoid. The solenoid was placed at a distance from the cell cultures such that the average field strength on the surface of the culture flasks where the cells were attached was 8 μT.
FIGS. 15B to 15F show microscopic images of in vitro U87MG cell cultures after exposed to different external treatments.
The data are means with standard deviation for four independent experiments. Data labelled * indicates a P value (student's t test) less than 0.01 compared to the control. Data labelled + indicates a P value (student's t test) less than 0.01 compared to the TTF-only data. Data labelled # indicates a P value (student's t test) less than 0.01 compared to the TTF+HT data.

[2] = tested on: AsPC1 (pancreatic adenocarcinoma, ATCC) cells; conditions: for effect on viable AsPC1 cells of TTF+HT+GEM+PT: 25 μM gemcitabine + 20 μM pterostilbene minute 0 to 240 + TTF 200 kHz, 1.5 μT + HT 52° C. 20 min, all four in combination
[3] = tested on: A2058 (melanoma, ATCC) cells
[4] = tested on: MCF-7 (mammary gland carcinoma); experiment: heating + tumour treating fields + PT in vitro, MCF-7; format: cell-based; conditions: MCF-7, in vitro
Source text: (§1) The effectiveness of therapy by heating in combination with tumour treating fields and exposure to PT is also observed in other cell lines in vitro, such as A2058 (melanoma), AsPC-1 (pancreas carcinoma), A549 (lung carcinoma), MCF-7 (mammary gland carcinoma), HT-29 (colorectal carcinoma), PC-3 (prostate carcinoma), SK-OV-3 (ovarian carcinoma and HepG2 (hepatocarcinoma).

[5] = tested on: A549 (lung carcinoma); experiment: heating + tumour treating fields + PT in vitro, A549; format: cell-based
Source text: as §1

[6] = tested on: SK-OV-3 (ovarian carcinoma); experiment: heating + tumour treating fields + PT in vitro, SK-OV-3; format: cell-based; conditions: SK-OV-3, in vitro
Source text: as §1

[7] = tested on: GL261; experiment: TTF+HT+PT therapy on glioblastoma line GL261; format: cell-based; conditions: compared with U87MG
[8] = tested on: C6; experiment: TTF+HT+PT therapy on glioblastoma line C6; format: cell-based; conditions: compared with U87MG
[9] = tested on: HepG2 (hepatocarcinoma); experiment: heating + tumour treating fields + PT in vitro, HepG2; format: cell-based
Source text: as §1

[10] = tested on: PC-3 (prostate carcinoma); experiment: heating + tumour treating fields + PT in vitro, PC-3; format: cell-based; conditions: PC-3, in vitro
Source text: as §1

[11] = tested on: HT-29 (colorectal carcinoma); experiment: heating + tumour treating fields + PT in vitro, HT-29; format: cell-based; conditions: HT-29, in vitro
Source text: as §1

[12] = tested on: GSH in AsPC1 (Pancreatic adenocarcinoma) cells; experiment: GSH content of AsPC1 cells in vitro (GSH depletion); format: cell-based
[13] = tested on: GSH in A2058 (melanoma) cells; experiment: GSH content of A2058 cells in vitro (GSH depletion); format: cell-based
[14] = tested on: GSH in U87 (GBM) cells; experiment: GSH content of U87MG cells in vitro (GSH depletion); format: cell-based
[15] = 1 mM BSO + TTF (200 kHz, 1.5 μT, 240 min) + HT (52° C., 20 min) applied 24 hours after seeding
[16] = 1 mM BSO added at seeding, BSO alone, mean ± SD, five experiments

Question: With `OC[C@H]1O[C@@H](Oc2cc(O)cc(/C=C/c3ccc(O)cc3)c2)[C@H](O)[C@@H](O)[C@@H]1O` [G-diOH-s, 3-glucoside-5,4′-dihydroxystilbene] as the molecule, how does the “effect on cell viability for U87MG cells” value [1] read?
Answer: significant reduction in cell viability

Question: Which “effect on viable AsPC1 cells of TTF+HT+GEM+PT” value [2] does the source give for `Nc1ccn([C@@H]2O[C@H](CO)[C@@H](O)C2(F)F)c(=O)n1` [GEM, gemcitabine] here?
Answer: eliminated the AsPC1 cells

Question: For `CC(=O)O[C@H]1C(=O)[C@@]2(C)[C@H]([C@H](OC(=O)c3ccccc3)[C@]3(O)C[C@H](OC(=O)[C@H](O)[C@@H](NC(=O)c4ccccc4)c4ccccc4)C(C)=C1C3(C)C)[C@]1(OC(C)=O)CO[C@@H]1C[C@@H]2O` [PAC, (2α,4α,5β,7β,10β,13α)-4,10-Bis(acetyloxy)-13-{[(2R,3 S)-3(benzoylamino)-2-hydroxy-3-phenylpropanoyl]oxy}-1,7-dihydroxy-9-oxo-5,20-epoxytax-11-en-2-yl benzoate], which “effect on viable A2058 cells of TTF+HT+PAC” value ([3]; 10 μM paclitaxel minute 0 to 240 + TTF 200 kHz, 1.5 μT + HT 52° C. 20 min) is on record?
Answer: eliminated the cells

Question: Which “effect on viable U87MG cells of TTF+HT+PT” value [1] does the source give for `COc1cc(/C=C/c2ccc(O)cc2)cc(OC)c1` [pterostilbene, trans-3,5-dimethoxy-4′-hydroxystilbene] here?
Answer: effectively eliminates all cells in vitro

Question: What about the “effect on viable U87MG cells of TTF+HT+PT” value ([1]; listed as PT) of the same molecule?
Answer: completely eliminates all U87MG growing cells

Question: What about the “effectiveness of therapy by heating in combination with tumour treating fields and exposure to PT” value (“effectiveness of therapy by heating” for short) [4] of the same molecule?
Answer: also observed

Question: And the “effect on viability of A2058 cells of TTF+HT+PT” value ([3]; 20 μM pterostilbene minute 0 to 240 + TTF 200 kHz, 1.5 μT + HT 52° C. 20 min, compared to TTF+HT)?
Answer: significantly reduced the viability of the cells

Question: And the “effectiveness of therapy by heating” value ([3]; A2058 (melanoma), in vitro)?
Answer: also observed

Question: And the “effectiveness of therapy by heating” value [5]?
Answer: also observed

Question: And the “effectiveness of therapy by heating” value [6]?
Answer: also observed

Question: And the “effect on viable AsPC1 cells of TTF+HT+GEM+PT” value [2]?
Answer: eliminated the AsPC1 cells

Question: And the “effectiveness of therapy by heating” value ([2]; AsPC-1 (pancreas carcinoma), in vitro)?
Answer: also observed

Question: And the “effectiveness of TTF+HT+PT therapy” value [7]?
Answer: same effectiveness

Question: What about the “effectiveness of TTF+HT+PT therapy” value [8] of the same molecule?
Answer: same effectiveness

Question: And the “effectiveness of therapy by heating” value [9]?
Answer: also observed

Question: And the “effectiveness of therapy by heating” value [10]?
Answer: also observed

Question: What about the “effectiveness of therapy by heating” value [11] of the same molecule?
Answer: also observed

Question: How did the “effect on cell viability for U87MG cells” value [1] turn out when `Oc1ccc(C=Cc2cc(O)cc(O)c2)cc1` [resveratrol] was run?
Answer: do not eliminate all U87MG cell growing in vitro

Question: For Buthionine sulfoximine [BSO], which GSH [12, 15] is on record?
Answer: 2.49 ± 0.66*^+ nmol/10^6 cells

Question: And the GSH [12, 16]?
Answer: 3.14 ± 0.79 nmol/10^6 cells

Question: And the GSH [13, 15]?
Answer: 2.06 ± 0.51*^+ nmol/10^6 cells

Question: What about the GSH [13, 16] of the same molecule?
Answer: 2.24 ± 0.82 nmol/10^6 cells

Question: What about the GSH ([14]; 1 mM BSO + TTF (200 kHz, 1.5 μT, 240 min) + HT (42 °C, 20 min) applied 24 hours after seeding) of the same molecule?
Answer: 1.92 ± 0.59*^+ nmol/10^6 cells

Question: And the GSH [14, 16]?
Answer: 2.10 ± 0.70 nmol/10^6 cells
